In patent US20070117770A1, “Human ribosomal DNA (rDNA) and ribosomal RNA (rRNA) nucleic acids and uses thereof” (Cylene Pharmaceuticals, Inc., priority 2005, published 2007) one finds remaining activity data, which are given here for two compounds.

What all share (experiment): Protein kinase inhibition assay
Common to all, as to type: biochemical

Assay [1] concerns the target Aurora-A(h) (Homo sapiens, UniProt O14965). The settings on record: read-out: percent residual activity of Aurora-A(h). The procedure: (§1) Certain compounds were tested for activity in protein kinase inhibition assays. All substrates were dissolved and diluted to working stocks in de-ionized water, apart from histone H1 (10× working stock in 20 mM MOPS pH 7.0), PDKtide (10× working stock in 50 mM Tris pH 7.0) ATF2 (which is typically stored at a 20× working stock in 50 mM Tris pH 7.5, 150 mM NaCl, 0.1 mM EGTA, 0.03% Brij-35, 50% glycerol, 1 mM benzamidine, 0.2 mM PMSF and 0.1% R-mercaptoethanol), KKLNRTLSFAEPG (SEQ ID NO:203) and RRRLSFAEPG (SEQ ID NO:204) (50 mM HEPES pH 7.4) and GGEEEEYFELVKKKK (SEQ ID NO:205) (20 mM MOPS pH 7.0). All kinases were pre-diluted to a 10× working concentration prior to addition into the assay. The composition of the dilution buffer for each kinase is detailed below.
In a final reaction volume of 25 μl, Aurora-A (h) (5-10 mU) is incubated with 8 mM MOPS pH 7.0, 0.2 mM EDTA, 200 μM LRRASLG (SEQ ID NO:209) (Kemptide), 10 mM MgAcetate and [gamma-33P-ATP] (specific activity approx. 500 cpm/pmol, concentration as required). The reaction is initiated by the addition of the MgATP mix. After incubation for 40 minutes at room temperature, the reaction is stopped by the addition of 5 μl of a 3% phosphoric acid solution. […]

In assay [2] the target is EphA5(h) (Homo sapiens, UniProt P54756). Conditions: read-out: percent residual activity of EphA5(h). The procedure:
as §1
(§2) In a final reaction volume of 25 μl, EphA5 (h) (5-10 mU) is incubated with 8 mM MOPS pH 7.0, 0.2 mM EDTA, 2.5 mM MnCl2, 0.1 mg/ml poly (Glu, Tyr) 4:1, 10 mM MgAcetate and [gamma-33P-ATP] (specific activity approx. 500 cpm/pmol, concentration as required). The reaction is initiated by the addition of the MgATP mix. After incubation for 40 minutes at room temperature, the reaction is stopped by the addition of 5 μl of a 3% phosphoric acid solution. 10 μl of the reaction is then spotted onto a Filtermat A and washed three times for 5 minutes in 75 mM phosphoric acid and once in methanol prior to drying and scintillation counting.

The target in assay [3] is EphB4(h) (Homo sapiens, UniProt P54760). Conditions: read-out: percent residual activity of EphB4(h). Here is the method:
as §1
as §2, with “EphB4” for “EphA5”, “10” for “2.5”, “poly(Glu,” for “poly (Glu,”

Assay [4] concerns the target MAPKAP-K3(h) (Homo sapiens, UniProt Q16644). The settings on record: read-out: percent residual activity of MAPKAP-K3(h). The procedure: as §1
In a final reaction volume of 25 μl, MAPKAP-K3 (h) (5-10 mU) is incubated with 50 mM Na R-glycerophosphate pH 7.5, 0.1 mM EGTA, 30 μM KKLNRTLSVA (SEQ ID NO:212), 10 mM MgAcetate and [gamma-33P-ATP] (specific activity approx. 500 cpm/pmol, concentration as required). The reaction is initiated by the addition of the MgATP mix. After incubation for 40 minutes at room temperature, the reaction is stopped by the addition of 5 μl of a 3% phosphoric acid solution. […]

Assay [5] concerns the target PKCα(h) (Homo sapiens, UniProt P17252). The settings on record: read-out: percent residual activity of PKCα(h). Here is the method:
as §1
In a final reaction volume of 25 μl, PKCα (h) (5-10 mU) is incubated with 20 mM HEPES pH 7.4, 0.03% Triton X-100, […], 0.1 mg/ml phosphatidylserine, 10 μg/ml diacylglycerol, 0.1 mg/ml histone H1, 10 mM MgAcetate and [gamma-33P-ATP] (specific activity approx. 500 cpm/pmol, concentration as required). The reaction is initiated by the addition of the MgATP mix. After incubation for 40 minutes at room temperature, the reaction is stopped by the addition of 5 μl of a 3% phosphoric acid solution. […]

Assay [6] addresses Ret(h) (Homo sapiens, UniProt P07949). Conditions: read-out: percent residual activity of Ret(h). Here is the method: as §1
as §2, with “Ret” for “EphA5”, “250 μM KKKSPGEYVNIEFG (SEQ ID NO:207),” for “2.5 mM MnCl2, 0.1 mg/ml poly (Glu, Tyr) 4:1,”, “P30 filtermat” for “Filtermat A”

The structures appear in SMILES notation.

EphB4(h), sequence (P54760 16-987): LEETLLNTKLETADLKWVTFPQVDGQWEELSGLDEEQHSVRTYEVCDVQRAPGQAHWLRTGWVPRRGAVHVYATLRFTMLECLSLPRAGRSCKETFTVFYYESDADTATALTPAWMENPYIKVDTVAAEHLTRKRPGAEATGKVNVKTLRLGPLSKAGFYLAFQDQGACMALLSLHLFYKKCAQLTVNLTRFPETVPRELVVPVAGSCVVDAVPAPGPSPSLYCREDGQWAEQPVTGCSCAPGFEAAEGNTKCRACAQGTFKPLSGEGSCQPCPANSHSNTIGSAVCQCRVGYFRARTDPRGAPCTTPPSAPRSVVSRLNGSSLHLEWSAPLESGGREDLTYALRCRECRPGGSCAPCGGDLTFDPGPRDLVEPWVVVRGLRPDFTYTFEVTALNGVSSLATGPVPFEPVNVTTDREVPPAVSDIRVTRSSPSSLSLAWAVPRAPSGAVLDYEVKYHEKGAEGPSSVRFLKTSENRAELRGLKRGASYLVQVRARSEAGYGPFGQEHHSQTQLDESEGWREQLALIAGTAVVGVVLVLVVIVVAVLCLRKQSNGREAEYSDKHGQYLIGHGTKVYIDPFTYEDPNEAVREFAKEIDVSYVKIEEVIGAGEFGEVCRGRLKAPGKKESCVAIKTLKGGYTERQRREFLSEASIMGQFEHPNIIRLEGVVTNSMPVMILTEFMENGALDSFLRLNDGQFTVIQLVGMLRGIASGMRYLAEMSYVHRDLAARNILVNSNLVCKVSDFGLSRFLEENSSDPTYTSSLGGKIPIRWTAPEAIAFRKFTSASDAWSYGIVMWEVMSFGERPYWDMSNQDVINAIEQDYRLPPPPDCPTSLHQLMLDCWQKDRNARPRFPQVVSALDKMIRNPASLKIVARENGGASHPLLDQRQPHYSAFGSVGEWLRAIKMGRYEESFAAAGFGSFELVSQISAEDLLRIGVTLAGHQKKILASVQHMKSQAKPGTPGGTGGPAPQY
MAPKAP-K3(h), sequence (Q16644 whole entry): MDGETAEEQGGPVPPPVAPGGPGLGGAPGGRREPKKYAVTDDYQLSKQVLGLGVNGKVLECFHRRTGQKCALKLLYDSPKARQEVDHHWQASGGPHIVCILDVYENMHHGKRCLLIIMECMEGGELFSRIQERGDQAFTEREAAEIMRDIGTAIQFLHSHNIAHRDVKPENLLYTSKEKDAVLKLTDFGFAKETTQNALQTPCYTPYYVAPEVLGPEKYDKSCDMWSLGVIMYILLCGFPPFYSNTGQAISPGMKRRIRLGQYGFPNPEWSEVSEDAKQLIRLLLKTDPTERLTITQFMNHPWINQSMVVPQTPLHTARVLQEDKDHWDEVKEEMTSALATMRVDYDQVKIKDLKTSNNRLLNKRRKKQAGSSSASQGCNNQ
EphA5(h), sequence (P54756 25-1037): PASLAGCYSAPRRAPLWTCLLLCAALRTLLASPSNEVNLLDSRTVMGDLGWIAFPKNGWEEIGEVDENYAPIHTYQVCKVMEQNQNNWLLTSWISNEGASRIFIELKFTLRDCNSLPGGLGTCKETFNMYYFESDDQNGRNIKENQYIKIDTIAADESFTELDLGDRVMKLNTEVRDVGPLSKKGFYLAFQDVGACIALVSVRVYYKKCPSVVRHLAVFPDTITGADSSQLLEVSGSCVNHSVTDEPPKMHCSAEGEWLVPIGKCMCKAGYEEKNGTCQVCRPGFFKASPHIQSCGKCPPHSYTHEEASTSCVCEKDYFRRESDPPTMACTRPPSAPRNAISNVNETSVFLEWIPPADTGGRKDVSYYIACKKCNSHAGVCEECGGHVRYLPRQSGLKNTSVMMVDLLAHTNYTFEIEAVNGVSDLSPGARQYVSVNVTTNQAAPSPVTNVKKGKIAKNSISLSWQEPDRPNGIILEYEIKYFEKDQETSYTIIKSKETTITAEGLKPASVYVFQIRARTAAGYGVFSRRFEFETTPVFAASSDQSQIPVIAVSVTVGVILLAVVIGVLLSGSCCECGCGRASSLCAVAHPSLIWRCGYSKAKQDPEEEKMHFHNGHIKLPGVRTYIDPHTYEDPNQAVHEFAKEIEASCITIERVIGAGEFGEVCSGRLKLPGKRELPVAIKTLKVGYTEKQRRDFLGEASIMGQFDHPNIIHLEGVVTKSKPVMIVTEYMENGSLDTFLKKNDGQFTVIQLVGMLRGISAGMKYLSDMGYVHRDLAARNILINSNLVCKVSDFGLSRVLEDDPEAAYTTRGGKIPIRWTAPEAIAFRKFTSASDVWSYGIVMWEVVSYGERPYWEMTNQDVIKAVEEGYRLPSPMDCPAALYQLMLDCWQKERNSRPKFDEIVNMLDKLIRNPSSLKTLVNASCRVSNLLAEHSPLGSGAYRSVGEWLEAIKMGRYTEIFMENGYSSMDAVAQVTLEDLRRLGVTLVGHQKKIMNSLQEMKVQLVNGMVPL
Ret(h), sequence (P07949 29-1114): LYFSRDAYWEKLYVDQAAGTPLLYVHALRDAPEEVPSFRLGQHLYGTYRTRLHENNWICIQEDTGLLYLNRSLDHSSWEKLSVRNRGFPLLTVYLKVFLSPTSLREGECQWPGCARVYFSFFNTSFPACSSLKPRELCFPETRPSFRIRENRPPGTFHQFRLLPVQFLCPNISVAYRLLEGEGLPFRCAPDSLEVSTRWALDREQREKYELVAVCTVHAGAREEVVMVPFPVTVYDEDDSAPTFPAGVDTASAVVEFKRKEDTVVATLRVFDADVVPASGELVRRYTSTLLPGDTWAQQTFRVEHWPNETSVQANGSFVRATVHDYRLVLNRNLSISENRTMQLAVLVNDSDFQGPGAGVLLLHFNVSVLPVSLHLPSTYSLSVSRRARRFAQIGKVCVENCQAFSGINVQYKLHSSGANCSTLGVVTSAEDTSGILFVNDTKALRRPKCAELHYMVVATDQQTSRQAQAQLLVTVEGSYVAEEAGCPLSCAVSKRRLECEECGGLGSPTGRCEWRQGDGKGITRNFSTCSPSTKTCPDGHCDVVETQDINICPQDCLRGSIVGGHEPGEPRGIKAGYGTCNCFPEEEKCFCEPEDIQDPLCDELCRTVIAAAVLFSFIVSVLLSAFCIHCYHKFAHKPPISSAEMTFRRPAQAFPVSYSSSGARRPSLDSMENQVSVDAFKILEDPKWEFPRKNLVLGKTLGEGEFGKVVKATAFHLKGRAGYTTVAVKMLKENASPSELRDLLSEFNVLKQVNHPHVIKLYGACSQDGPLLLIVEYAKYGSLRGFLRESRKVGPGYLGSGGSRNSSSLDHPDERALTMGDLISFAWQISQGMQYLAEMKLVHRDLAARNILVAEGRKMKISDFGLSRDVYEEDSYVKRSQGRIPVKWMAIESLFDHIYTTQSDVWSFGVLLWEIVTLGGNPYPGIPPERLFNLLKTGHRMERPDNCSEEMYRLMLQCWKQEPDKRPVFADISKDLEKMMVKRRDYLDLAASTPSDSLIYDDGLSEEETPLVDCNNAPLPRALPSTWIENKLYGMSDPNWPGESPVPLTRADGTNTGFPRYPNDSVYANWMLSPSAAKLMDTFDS
Aurora-A(h), sequence (O14965 whole entry): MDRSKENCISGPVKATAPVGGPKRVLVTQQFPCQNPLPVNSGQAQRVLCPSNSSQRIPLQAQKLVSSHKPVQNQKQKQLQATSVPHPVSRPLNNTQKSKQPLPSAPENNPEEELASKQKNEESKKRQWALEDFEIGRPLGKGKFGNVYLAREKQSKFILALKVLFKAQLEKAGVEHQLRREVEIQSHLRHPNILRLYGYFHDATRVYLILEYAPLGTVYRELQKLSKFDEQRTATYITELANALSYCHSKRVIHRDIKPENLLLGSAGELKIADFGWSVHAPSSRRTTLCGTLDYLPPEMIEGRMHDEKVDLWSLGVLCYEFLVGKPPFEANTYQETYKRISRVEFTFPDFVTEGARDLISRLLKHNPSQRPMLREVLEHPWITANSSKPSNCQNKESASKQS

In the case of `CN1CCCC1CCNC(=O)c1cn2c3c(c(N4CCC(c5cnccn5)C4)c(F)cc3c1=O)Oc1cc3ccccc3cc1-2` (stereo not drawn) [Compound A-1], the remaining activity at 2.5 µM in assay [1] is 43%; in assay [2] it was 111%; in assay [3], 96%; in assay [4], 94%; in assay [5], 90%; in assay [6], 123%.

For `CC(=O)N1CCN(c2ccc3c(=O)c(C(=O)NCCN4CCCC4)c4n(C)c5ccccc5n4c3n2)CC1` [Compound B-1], the remaining activity at 2.5 µM in assay [1] amounted to 104%; in assay [2], 101%; in assay [3] it was 108%; in assay [4], 109%; in assay [5], 101%; in assay [6] it was 92%.
